Read-outs that look alike come from different tables or passages of the source.
Key:
Assay type in all cases: cell-based
[1] = test system: wild type laboratory HIV strain (HIV-1 strain LAI); test: Antiviral cellular assay (MT4 cells, MTT), wild type
Method: The compounds of the present invention were examined for anti-viral activity in a cellular assay. […] The cellular assay was performed according to the following procedure.
(§1) HIV- or mock-infected MT4 cells were incubated for five days in the presence of various concentrations of the inhibitor. At the end of the incubation period, the replicating virus in the control cultures has killed all HIV-infected cells in the absence of any inhibitor. Cell viability was determined by measuring the concentration of MTT, a yellow, water soluble tetrazolium dye that is converted to a purple, water insoluble formazan in the mitochondrial of living cells only. Upon solubilization of the resulting formazan crystals with isopropanol, the absorbance of the solution was monitored at 540 nm. The values correlate directly to the number of living cells remaining in the culture at the completion of the five day incubation. The inhibitory activity of the compound was monitored on the virus-infected cells and was expressed as EC50 and EC90. These values represent the amount of the compound required to protect 50% and 90%, respectively, of the cells from the cytopathogenic effect of the virus. The toxicity of the compound was measured on the mock-infected cells and was expressed as CC50, which represents the concentration of compound required to inhibit the growth of the cells by 50%. The selectivity index (SI) (ratio CC50/EC50) is an indication of the selectivity of the anti-HIV activity of the inhibitor. Wherever results are reported as e.g. pEC50 or pCC50 values, the result is expressed as the negative logarithm of the result expressed as EC50 or CC50 respectively.

HIV strain F (Y188L) = test: Antiviral cellular assay, mutant strain F
Method: as §1
(§2) Because of the increasing emergence of drug resistant HIV strains, the present compounds were also tested for their potency against clinically isolated HIV strains harbouring several mutations (Tables 1 and 7). These mutations are associated with resistance to reverse transcriptase inhibitors and result in viruses that show various degrees of phenotypic cross-resistance to the currently commercially available drugs such as for instance AZT, didanosine, nevirapine, lamivudine and zalcibatine.

[2] = test system: HIV strain C (L100I; K103N); test: Antiviral cellular assay, mutant strain C
Method: as §1, §2

[3] = test system: HIV strain J (I31L, L100I, K103N, E138G, Y181C, L214F); test: Antiviral cellular assay, mutant strain J
Method: as §1, §2

HIV strain A (Y181C) = test: Antiviral cellular assay, mutant strain A
Method: as §1, §2

HIV-2 = test: Antiviral cellular assay, HIV-2; details: Human immunodeficiency virus 2; read-out: pEC50 towards HIV-2 (converted)
Method: as §1, with “The toxicity of the compound was measured on the mock-infected cells and was expressed as CC50, which represents the concentration of compound required to inhibit the growth of the cells by 50%. The selectivity index (SI) (ratio CC50/EC50) is an indication of the selectivity of the anti-HIV activity of the inhibitor.” left out
(§3) Row WT: pEC50 against wild type HlV-LAI strain. The toxicity (Tox) is expressed as the pCC50 value as determined with mock transfected cells. ND means not determined.

HIV strain E (F227C) = test: Antiviral cellular assay, mutant strain E
Method: as §1, §2

[4] = test system: HIV strain K (multi-mutant incl. M41L, D67N, K103N, Y181C, L210W, T215Y); test: Antiviral cellular assay, mutant strain K
Method: as §1, §2

[5] = test system: HIV strain I (K101E, K103N); test: Antiviral cellular assay, mutant strain I
Method: as §1, §2

HIV strain B (K103N) = test: Antiviral cellular assay, mutant strain B
Method: as §1, §2

[6] = test system: SIV (simian immunodeficiency virus); test: Antiviral cellular assay, SIV; details: read-out: pEC50 towards SIV (converted)
[7] = test system: HIV strain D (L100I;K103N); test: Antiviral cellular assay, mutant strain D
Method: as §1, §2

[8] = test system: HIV strain H (K103N, Y181C); test: Antiviral cellular assay, mutant strain H
Method: as §1, §2

in vitro = details: human
Method: as §1, with “The toxicity of the compound was measured on the mock-infected cells and was expressed as CC50, which represents the concentration of compound required to inhibit the growth of the cells by 50%. The selectivity index (SI) (ratio CC50/EC50) is an indication of the selectivity of the anti-HIV activity of the inhibitor.” left out
as §3

[9] = test system: HIV strain G (V106A, F227L); test: Antiviral cellular assay, mutant strain G
Method: as §1, §2

[10] = Human immunodeficiency virus 1, MT4, read-out: EC50 value, wild-type HIV-LAI strain
[11] = EC50 mutant / EC50 wild type, rounded to nearest integer

## N#Cc1ccc(-n2c(=O)ccc3[nH]c4ccccc4c32)cc1 [Compound 93]
[1]; [10]
  EC50: 1000 to 32000 nM

## Cn1c2ccccc2c2c1cc(C#N)c(=O)n2-c1ccc(F)cc1 [Compound 44]
[1]; [10]
  EC50: > 32000 nM

## Cn1c2ccccc2c2c1ccc(=O)n2-c1ccc(C(=O)O)cc1 [Compound 99]
[1]; [10]
  EC50: 1000 to 32000 nM

## N#Cc1cc2[nH]c3ccccc3c2n(-c2ccc([N+](=O)[O-])cc2)c1=O [Compound 1, 1-(4-nitro-phenyl)-2-oxo-2,5-dihydro-1H-pyrido[3,2-b]indole-3-carbonitrile]
HIV strain F (Y188L); [11]
  fold resistance, mutant F: (4)
HIV strain F (Y188L); Human immunodeficiency virus 1, read-out: pEC50 towards mutant F (converted)
  EC50: 1260 nM
[2]; [11]
  fold resistance, mutant C: (8)
[2]; Human immunodeficiency virus 1, read-out: pEC50 towards mutant C (converted)
  EC50: 2510 nM
[3]; [11]
  fold resistance, mutant J: (5)
[3]; Human immunodeficiency virus 1, read-out: pEC50 towards mutant J (converted)
  EC50: 1580 nM
HIV strain A (Y181C); [11]
  fold resistance, mutant A: (8)
HIV strain A (Y181C); Human immunodeficiency virus 1, read-out: pEC50 towards mutant A (converted)
  EC50: 2510 nM
HIV-2
  EC50: 6310 nM
HIV strain E (F227C); [11]
  fold resistance, mutant E: (6)
HIV strain E (F227C); Human immunodeficiency virus 1, read-out: pEC50 towards mutant E (converted)
  EC50: 2000 nM
[4]; [11]
  fold resistance, mutant K: (1)
[4]; Human immunodeficiency virus 1, read-out: pEC50 towards mutant K (converted)
  EC50: 316 nM
[5]; [11]
  fold resistance, mutant I: (3)
[5]; Human immunodeficiency virus 1, read-out: pEC50 towards mutant I (converted)
  EC50: 794 nM
HIV strain B (K103N); [11]
  fold resistance, mutant B: (4)
HIV strain B (K103N); Human immunodeficiency virus 1, read-out: pEC50 towards mutant B (converted)
  EC50: 1260 nM
[6]
  EC50: 7940 nM
[7]; [11]
  fold resistance, mutant D: (3)
[7]; Human immunodeficiency virus 1, read-out: pEC50 towards mutant D (converted)
  EC50: 1000 nM
[8]; [11]
  fold resistance, mutant H: (5)
[8]; Human immunodeficiency virus 1, read-out: pEC50 towards mutant H (converted)
  EC50: 1580 nM
[1]; Human immunodeficiency virus 1, WT, MT4 cells, read-out: pEC50 against wild type HIV-LAI strain (converted)
  EC50: 316 nM
In vitro
  CC50 at 5 days: > 32400 nM
[9]; [11]
  fold resistance, mutant G: (2)
[9]; Human immunodeficiency virus 1, read-out: pEC50 towards mutant G (converted)
  EC50: 631 nM

## CCCCn1c2ccccc2c2c1cc(C#N)c(=O)n2-c1ccc([N+](=O)[O-])cc1 [Compound 8]
[1]; [10]
  EC50: < 1000 nM

## Cn1c2ccccc2c2c1ccc(=O)n2-c1ccc(/C(N)=N/O)cc1 [Compound 97]
[1]; [10]
  EC50: 1000 to 32000 nM

## N#Cc1cc2[nH]c3ccccc3c2n(-c2cccc([N+](=O)[O-])c2)c1=O [Compound 42]
[1]; [10]
  EC50: 1000 to 32000 nM

## Cn1c2ccccc2c2c1cc(Br)c(=O)n2-c1ccc([N+](=O)[O-])cc1 [Compound 68]
[1]; [10]
  EC50: < 1000 nM

## Cn1c2ccccc2c2c1cc(C#N)c(=O)n2-c1ccc(Br)cc1 [Compound 39]
[1]; [10]
  EC50: 1000 to 32000 nM

## Cn1c2ccccc2c2c1ccc(=O)n2-c1ccc([N+](=O)[O-])cc1 [Compound 67]
[1]; [10]
  EC50: < 1000 nM

## N#Cc1cc2[nH]c3ccccc3c2n(-c2ccc(F)c([N+](=O)[O-])c2)c1=O [Compound 41]
[1]; [10]
  EC50: 1000 to 32000 nM

## Cn1c2ccccc2c2c1ccc(=O)n2-c1ccc(C#N)cc1 [Compound 96]
[1]; [10]
  EC50: 1000 to 32000 nM

## N#Cc1cc2[nH]c3ccccc3c2n(-c2ccc(F)cc2)c1=O [Compound 37]
[1]; [10]
  EC50: > 32000 nM

## Cn1c2ccccc2c2c1cc(C#N)c(=O)n2-c1cccc([N+](=O)[O-])c1 [Compound 43]
[1]; [10]
  EC50: < 1000 nM

## Cn1c2ccccc2c2c1cc(C#N)c(=O)n2-c1ccc(N)cc1 [Compound 89]
[1]; [10]
  EC50: > 32000 nM

— patent US20070249655A1, “4-Substituted-1,5-Dihydro-Pyrido[3,2-B]Indol-2-Ones” (priority 2004, published 2007)
